Reference: patent publication US4992530A, “Calcitonin-gene-related peptide derivatives” (Toyo Jozo Kabushiki Kaisha, priority 1987, dated 1991)
Ends that are not written are not given here. Peptide text beside a SMILES is read from it.

Tests used:
[1] = Serum phosphate reducing activity in rats (method of Goldenberg et al.); format: in vivo; details: 80 μg/kg intravenously, Wistar rats; for prolongation of serum phosphate reducing effect compared with h-CGRP / serum phosphate reducing activity compared with h-CGRP: comparator h-CGRP; for serum phosphate reducing activity compared with h-CGRP: same dose; for reduction of serum phosphate concentration as compared with the control group: tail vein, vs dissolving medium group, FIG. 2
Description: (§1) Serum calcium and serum phosphate reducing activities: Assay method:
(§2) The peptide (1) of the present invention and known h-CGRP (each 80 μg) dissolved in citrate buffer, pH 6.5, containing 0.1% bovine serum albumin (hereinafter designated dissolving medium) (1 ml) were administered intravenously into the tail vein of Wistar rats, body weight 80-90 g, 5-6 rats in one group, at 80 μg/kg. After 30 and 60 mins. of administration, blood samples were collected from the abdominal descending aorta. The serum calcium concentration was measured by atomic adsorption spectrophotometry. Serum phosphate was measured by a method according to Goldenberg et al. [Clin. Chem., 12: 872-882 (1966)].

[2] = Serum calcium reducing activity in rats (atomic absorption spectrophotometry); format: in vivo; details: 80 μg/kg intravenously, Wistar rats; for prolongation of serum calcium reducing effect compared with h-CGRP / serum calcium reducing activity compared with h-CGRP: comparator h-CGRP; for serum calcium reducing activity compared with h-CGRP: same dose; for reduction of serum calcium concentration as compared with the control group: tail vein, vs dissolving medium group, FIG. 1
Description: as §1, §2

CC(C)C[C@H](NC(=O)[C@H](CCCNC(=N)N)NC(=O)[C@H](Cc1c[nH]cn1)NC(=O)[C@@H](NC(=O)[C@@H](NC(=O)[C@@H]1CSSC[C@H](NC(=O)[C@H](C)N)C(=O)N[C@@H](CC(N)=O)C(=O)N[C@@H]([C@@H](C)O)C(=O)N[C@@H](C)C(=O)N[C@@H]([C@@H](C)O)C(=O)N1)C(C)C)[C@@H](C)O)C(=O)N[C@@H](C)C(=O)N[C@@H](CC(=O)O)C(=O)N[C@@H](Cc1ccccc1)C(=O)N[C@@H](CC(C)C)C(=O)N[C@@H](CO)C(=O)N[C@@H](CCCNC(=N)N)C(=O)N[C@@H](CO)C(=O)NCC(=O)NCC(=O)N[C@H](C(=O)N[C@H](C(=O)N[C@@H](CCCCN)C(=O)N[C@@H](CC(N)=O)C(=O)N[C@@H](CC(N)=O)C(=O)N[C@@H](Cc1ccccc1)C(=O)N[C@H](C(=O)N1CCC[C@H]1C(=O)N[C@H](C(=O)N[C@@H](CC(N)=O)C(=O)N[C@H](C(=O)NCC(=O)N[C@@H](CO)C(=O)N[C@@H](CCCCN)C(=O)N[C@@H](C)C(=O)N[C@@H](Cc1ccccc1)C(N)=O)C(C)C)[C@@H](C)O)C(C)C)C(C)C)C(C)C [Asn^3,Asp^14,Phe^15] h-CGRP(1-37), [Asn^3,Asp^14,Phe^15] h-CGRP(1-37)] (HELM PEPTIDE1{A.C.N.T.A.T.C.V.T.H.R.L.A.D.F.L.S.R.S.G.G.V.V.K.N.N.F.V.P.T.N.V.G.S.K.A.F.[am]}$PEPTIDE1,PEPTIDE1,2:R3-7:R3$$$V2.0)
duration of serum phosphate reducing activity [1]: more than 2 hours
prolongation of serum phosphate reducing effect compared with h-CGRP [1]: prolonged significantly
serum phosphate reducing activity compared with h-CGRP [1]: stronger than those of h-CGRP
reduction of serum phosphate concentration as compared with the control group [1]: 20-30%
duration of serum calcium reducing activity [2]: more than 2 hours
prolongation of serum calcium reducing effect compared with h-CGRP [2]: prolonged significantly
serum calcium reducing activity compared with h-CGRP [2]: stronger than those of h-CGRP
reduction of serum calcium concentration as compared with the control group [2]: 20-30%

[Asp^14 ] h-CGRP(1-37) (ACDTATCVTHRLADLLSRSGGVVKNNFVPTNVGSKAF; ends and bridges not checked; cysteine pairing not given here; UniProt P06881 83-119, looked up, variant G14D) [R = H--Ala--NH--, A = Asp, B = Asp, C = Leu, D = Val]
duration of serum phosphate reducing activity [1]: more than 2 hours
prolongation of serum phosphate reducing effect compared with h-CGRP [1]: prolonged significantly
serum phosphate reducing activity compared with h-CGRP [1]: stronger than those of h-CGRP
reduction of serum phosphate concentration as compared with the control group [1]: 20-30%
duration of serum calcium reducing activity [2]: more than 2 hours
prolongation of serum calcium reducing effect compared with h-CGRP [2]: prolonged significantly
serum calcium reducing activity compared with h-CGRP [2]: stronger than those of h-CGRP
reduction of serum calcium concentration as compared with the control group [2]: 20-30%

CC(C)C[C@H](NC(=O)[C@H](CCCNC(=N)N)NC(=O)[C@H](Cc1c[nH]cn1)NC(=O)[C@@H](NC(=O)[C@@H](NC(=O)[C@@H]1CSSC[C@H](NC(=O)[C@H](C)N)C(=O)N[C@@H](CC(N)=O)C(=O)N[C@@H]([C@@H](C)O)C(=O)N[C@@H](C)C(=O)N[C@@H]([C@@H](C)O)C(=O)N1)C(C)C)[C@@H](C)O)C(=O)N[C@@H](C)C(=O)NCC(=O)N[C@@H](Cc1ccccc1)C(=O)N[C@@H](CC(C)C)C(=O)N[C@@H](CO)C(=O)N[C@@H](CCCNC(=N)N)C(=O)N[C@@H](CO)C(=O)NCC(=O)NCC(=O)N[C@H](C(=O)NCC(=O)N[C@@H](CCCCN)C(=O)N[C@@H](CC(N)=O)C(=O)N[C@@H](CC(N)=O)C(=O)N[C@@H](Cc1ccccc1)C(=O)N[C@H](C(=O)N1CCC[C@H]1C(=O)N[C@H](C(=O)N[C@@H](CC(N)=O)C(=O)N[C@H](C(=O)NCC(=O)N[C@@H](CO)C(=O)N[C@@H](CCCCN)C(=O)N[C@@H](C)C(=O)N[C@@H](Cc1ccccc1)C(N)=O)C(C)C)[C@@H](C)O)C(C)C)C(C)C [[Asn^3, Phe^15,Gly^23] h-CGRP(1-37), [Asn^3,Phe^15,Gly^23] h-CGRP(1-37)] (HELM PEPTIDE1{A.C.N.T.A.T.C.V.T.H.R.L.A.G.F.L.S.R.S.G.G.V.G.K.N.N.F.V.P.T.N.V.G.S.K.A.F.[am]}$PEPTIDE1,PEPTIDE1,2:R3-7:R3$$$V2.0)
duration of serum phosphate reducing activity [1]: more than 2 hours
prolongation of serum phosphate reducing effect compared with h-CGRP [1]: prolonged significantly
serum phosphate reducing activity compared with h-CGRP [1]: stronger than those of h-CGRP
reduction of serum phosphate concentration as compared with the control group [1]: 20-30%
duration of serum calcium reducing activity [2]: more than 2 hours
prolongation of serum calcium reducing effect compared with h-CGRP [2]: prolonged significantly
serum calcium reducing activity compared with h-CGRP [2]: stronger than those of h-CGRP
reduction of serum calcium concentration as compared with the control group [2]: 20-30%

CC(C)C[C@H](NC(=O)[C@H](CCCNC(=N)N)NC(=O)[C@H](Cc1c[nH]cn1)NC(=O)[C@@H](NC(=O)[C@@H](NC(=O)[C@@H]1CSSC[C@H](NC(=O)[C@H](C)N)C(=O)N[C@@H](CC(N)=O)C(=O)N[C@@H]([C@@H](C)O)C(=O)N[C@@H](C)C(=O)N[C@@H]([C@@H](C)O)C(=O)N1)C(C)C)[C@@H](C)O)C(=O)N[C@@H](C)C(=O)N[C@@H](CC(=O)O)C(=O)N[C@@H](CC(C)C)C(=O)N[C@@H](CC(C)C)C(=O)N[C@@H](CO)C(=O)N[C@@H](CCCNC(=N)N)C(=O)N[C@@H](CO)C(=O)NCC(=O)NCC(=O)N[C@H](C(=O)NCC(=O)N[C@@H](CCCCN)C(=O)N[C@@H](CC(N)=O)C(=O)N[C@@H](CC(N)=O)C(=O)N[C@@H](Cc1ccccc1)C(=O)N[C@H](C(=O)N1CCC[C@H]1C(=O)N[C@H](C(=O)N[C@@H](CC(N)=O)C(=O)N[C@H](C(=O)NCC(=O)N[C@@H](CO)C(=O)N[C@@H](CCCCN)C(=O)N[C@@H](C)C(=O)N[C@@H](Cc1ccccc1)C(N)=O)C(C)C)[C@@H](C)O)C(C)C)C(C)C [[Asn^3,Asp^14,Gly^23] h-CGRP(1-37)] (HELM PEPTIDE1{A.C.N.T.A.T.C.V.T.H.R.L.A.D.L.L.S.R.S.G.G.V.G.K.N.N.F.V.P.T.N.V.G.S.K.A.F.[am]}$PEPTIDE1,PEPTIDE1,2:R3-7:R3$$$V2.0)
duration of serum phosphate reducing activity [1]: more than 2 hours
prolongation of serum phosphate reducing effect compared with h-CGRP [1]: prolonged significantly
serum phosphate reducing activity compared with h-CGRP [1]: stronger than those of h-CGRP
reduction of serum phosphate concentration as compared with the control group [1]: 20-30%
duration of serum calcium reducing activity [2]: more than 2 hours
prolongation of serum calcium reducing effect compared with h-CGRP [2]: prolonged significantly
serum calcium reducing activity compared with h-CGRP [2]: stronger than those of h-CGRP
reduction of serum calcium concentration as compared with the control group [2]: 20-30%

desalanyl-deamino-[Asp^14 ] h-CGRP(2-37) [desalanyl-deamino-[Asp14] h-CGRP(2-37)]
duration of serum phosphate reducing activity [1]: more than 2 hours
prolongation of serum phosphate reducing effect compared with h-CGRP [1]: prolonged significantly
serum phosphate reducing activity compared with h-CGRP [1]: stronger than those of h-CGRP
reduction of serum phosphate concentration as compared with the control group [1]: 20-30%
duration of serum calcium reducing activity [2]: more than 2 hours
prolongation of serum calcium reducing effect compared with h-CGRP [2]: prolonged significantly
serum calcium reducing activity compared with h-CGRP [2]: stronger than those of h-CGRP
reduction of serum calcium concentration as compared with the control group [2]: 20-30%
